# Test results from patent US20100279863A1, “HERBICIDAL COMPOUNDS BASED ON N-AZINYL-N'-PYRIDYLSULFONYLUREAS” (Bayer CropScience AG, priority 2009, published 2010).
# How the values were obtained:
# Type in all cases: in vivo
# [1] = tested on: Lambs quarters (Chenopodium album); experiment: Post-emergence herbicidal activity, CHEAL; settings: one-leaf stage, 80 g/ha, scored visually after approximately 3 weeks, 100% = plants have died
# Procedure: (§1) Seeds of monocotyledonous or dicotyledonous weed plants or crop plants are placed in sandy loam in wood fiber pots, covered with soil and grown in the greenhouse under good growth conditions. 2 to 3 weeks after sowing, the test plants are treated in the one-leaf stage. The compounds according to the invention, which are formulated as wettable powders (WP), are then sprayed onto the green plant parts in the form of an aqueous suspension or emulsion with a water application rate of 600 l/ha (converted) with addition of 0.2% of wetter. After the test plants have been left to stand in the greenhouse for approximately 3 weeks under optimal growth conditions, the activity of the preparation is scored visually in comparison with untreated controls (herbicidal activity in percent (%): 100% activity=plants have died, 0% activity=like control plants). In the table, the individual crops are abbreviated as follows: • ABUTH: Velvetleaf (Abutilon theophrasti) • ALOMY: Slender meadow foxtail (Alopecurus myosuroides) • AMARE: Redroot pigweed (Amaranthus retroflexus) • CHEAL: Lambs quarters (Chenopodium album) • ECHCG: Barnyard grass (Echinochloa crus-galls) • LOLMU: Italian rye grass (Lolium multiflorum) • MATIN: Scentless camomile (Matricaria inodora) • PHBPU: Purple morning glory (Pharbitis/Ipomoea purpurea) • POLCO: Black bindweed (Polygonum convolvulus) • SETVI: Green bristlegrass (Setaria viridis) • STEME: Chickweed (Stellaria media) • VIOTR: Wild pansy (Viola tricolor) • XANST: Rough cocklebear (Xanthium strumarium)
# [2] = tested on: Barnyard grass (Echinochloa crus-galls); experiment: Pre-emergence herbicidal activity, ECHCG; settings: 80 g/ha, scored visually after approximately 3 weeks, 100% = plants have died
# Description: (§2) Seeds of monocotyledonous or dicotyledonous weed plants or crop plants are placed in sandy loam in wood fiber pots and covered with soil. The compounds according to the invention, which are formulated as wettable powders (WP) are then applied to the surface of the soil cover in the form of an aqueous suspension or emulsion with a water application rate of 600 I/ha (converted), with addition of 0.2% wetter. After the treatment, the pots are placed in the greenhouse and maintained under good growth conditions for the test plants. After approximately 3 weeks, the activity of the preparation is scored visually in comparison with untreated controls (herbicidal activity in percent (%): 100% activity=plants have died, 0% activity=like control plants). In the table, the individual crops are abbreviated as follows: • ALOMY: Slender meadow foxtail (Alopecurus myosuroides) • AMARE: Redroot pigweed (Amaranthus retroflexus) • CHEAL: Lambs quarters (Chenopodium album) • DIGSA: Hairy crab grass (Digitaria sanguinalis) • ECHCG: Barnyard grass (Echinochloa crus-galls) • LOLMU: Italian rye grass (Lolium multiflorum) • MATIN: Scentless camomile (Matricaria inodora) • PHBPU: Purple morning glory (Pharbitis/Ipomoea purpurea) • SETVI: Green bristlegrass (Setaria viridis) • SINAL: White mustard (Sinapis alba) • STEME: Chickweed (Stellaria media) • VIOTR: Wild pansy (Viola tricolor)
# [3] = tested on: Slender meadow foxtail (Alopecurus myosuroides); experiment: Post-emergence herbicidal activity, ALOMY; settings: one-leaf stage, 80 g/ha, scored visually after approximately 3 weeks, 100% = plants have died
# Procedure: as §1
# [4] = tested on: Hairy crab grass (Digitaria sanguinalis); experiment: Pre-emergence herbicidal activity, DIGSA; settings: 80 g/ha, scored visually after approximately 3 weeks, 100% = plants have died
# Description: as §2
# [5] = tested on: Velvetleaf (Abutilon theophrasti); experiment: Post-emergence herbicidal activity, ABUTH; settings: one-leaf stage, 80 g/ha, scored visually after approximately 3 weeks, 100% = plants have died
# Procedure: as §1
# [6] = tested on: Chickweed (Stellaria media); experiment: Pre-emergence herbicidal activity, STEME; settings: 80 g/ha, scored visually after approximately 3 weeks, 100% = plants have died
# Description: as §2
# [7] = tested on: Black bindweed (Polygonum convolvulus); experiment: Post-emergence herbicidal activity, POLCO; settings: one-leaf stage, 80 g/ha, scored visually after approximately 3 weeks, 100% = plants have died
# Procedure: as §1
# [8] = tested on: Chickweed (Stellaria media); experiment: Post-emergence herbicidal activity, STEME; settings: one-leaf stage, 80 g/ha, scored visually after approximately 3 weeks, 100% = plants have died
# Procedure: as §1
# [9] = tested on: Scentless camomile (Matricaria inodora); experiment: Post-emergence herbicidal activity, MATIN; settings: one-leaf stage, 80 g/ha, scored visually after approximately 3 weeks, 100% = plants have died
# Procedure: as §1
# [10] = tested on: Redroot pigweed (Amaranthus retroflexus); experiment: Post-emergence herbicidal activity, AMARE; settings: one-leaf stage, 80 g/ha, scored visually after approximately 3 weeks, 100% = plants have died
# Procedure: as §1
# [11] = tested on: Green bristlegrass (Setaria viridis); experiment: Pre-emergence herbicidal activity, SETVI; settings: 80 g/ha, scored visually after approximately 3 weeks, 100% = plants have died
# Description: as §2
# [12] = tested on: Italian rye grass (Lolium multiflorum); experiment: Post-emergence herbicidal activity, LOLMU; settings: one-leaf stage, 80 g/ha, scored visually after approximately 3 weeks, 100% = plants have died
# Procedure: as §1
# [13] = tested on: Barnyard grass (Echinochloa crus-galls); experiment: Post-emergence herbicidal activity, ECHCG; settings: one-leaf stage, 80 g/ha, scored visually after approximately 3 weeks, 100% = plants have died
# Procedure: as §1
# [14] = tested on: Wild pansy (Viola tricolor); experiment: Post-emergence herbicidal activity, VIOTR; settings: one-leaf stage, 80 g/ha, scored visually after approximately 3 weeks, 100% = plants have died
# Procedure: as §1
# [15] = tested on: Lambs quarters (Chenopodium album); experiment: Pre-emergence herbicidal activity, CHEAL; settings: 80 g/ha, scored visually after approximately 3 weeks, 100% = plants have died
# Description: as §2
# [16] = tested on: Purple morning glory (Pharbitis/Ipomoea purpurea); experiment: Post-emergence herbicidal activity, PHBPU; settings: one-leaf stage, 80 g/ha, scored visually after approximately 3 weeks, 100% = plants have died
# Procedure: as §1
# [17] = tested on: Rough cocklebear (Xanthium strumarium); experiment: Post-emergence herbicidal activity, XANST; settings: one-leaf stage, 80 g/ha, scored visually after approximately 3 weeks, 100% = plants have died
# Procedure: as §1
# [18] = tested on: Scentless camomile (Matricaria inodora); experiment: Pre-emergence herbicidal activity, MATIN; settings: 80 g/ha, scored visually after approximately 3 weeks, 100% = plants have died
# Description: as §2
# [19] = tested on: White mustard (Sinapis alba); experiment: Pre-emergence herbicidal activity, SINAL; settings: 80 g/ha, scored visually after approximately 3 weeks, 100% = plants have died
# Description: as §2
# [20] = tested on: Redroot pigweed (Amaranthus retroflexus); experiment: Pre-emergence herbicidal activity, AMARE; settings: 80 g/ha, scored visually after approximately 3 weeks, 100% = plants have died
# Description: as §2
# [21] = tested on: Purple morning glory (Pharbitis/Ipomoea purpurea); experiment: Pre-emergence herbicidal activity, PHBPU; settings: 80 g/ha, scored visually after approximately 3 weeks, 100% = plants have died
# Description: as §2
# [22] = tested on: Wild pansy (Viola tricolor); experiment: Pre-emergence herbicidal activity, VIOTR; settings: 80 g/ha, scored visually after approximately 3 weeks, 100% = plants have died
# Description: as §2
# [23] = tested on: Italian rye grass (Lolium multiflorum); experiment: Pre-emergence herbicidal activity, LOLMU; settings: 80 g/ha, scored visually after approximately 3 weeks, 100% = plants have died
# Description: as §2
# [24] = tested on: Green bristlegrass (Setaria viridis); experiment: Post-emergence herbicidal activity, SETVI; settings: one-leaf stage, 80 g/ha, scored visually after approximately 3 weeks, 100% = plants have died
# Procedure: as §1
# [25] = tested on: Slender meadow foxtail (Alopecurus myosuroides); experiment: Pre-emergence herbicidal activity, ALOMY; settings: 80 g/ha, scored visually after approximately 3 weeks, 100% = plants have died
# Description: as §2
SMILES,"herbicidal activity in percent, CHEAL [1] [%]","herbicidal activity in percent, ECHCG [2] [%]","herbicidal activity in percent, ALOMY [3] [%]","herbicidal activity in percent, ABUTH [5] [%]","herbicidal activity in percent, STEME [6] [%]","herbicidal activity in percent, POLCO [7] [%]","herbicidal activity in percent, STEME [8] [%]","herbicidal activity in percent, MATIN [9] [%]","herbicidal activity in percent, AMARE [10] [%]","herbicidal activity in percent, SETVI [11] [%]","herbicidal activity in percent, LOLMU [12] [%]","herbicidal activity in percent, ECHCG [13] [%]","herbicidal activity in percent, VIOTR [14] [%]","herbicidal activity in percent, PHBPU [16] [%]","herbicidal activity in percent, XANST [17] [%]","herbicidal activity in percent, AMARE [20] [%]","herbicidal activity in percent, VIOTR [22] [%]","herbicidal activity in percent, LOLMU [23] [%]","herbicidal activity in percent, SETVI [24] [%]","herbicidal activity in percent, ALOMY [25] [%]",other results
"COc1cc(OC)nc(NC(=O)NS(=O)(=O)c2cnccc2C2=NOCCO2)n1 [Ia-2, 4-(5,6-Dihydro-1,4,2-dioxazin-3-yl)-N-[(4,6-dimethoxypyrimidin-2-yl)carbamoyl]pyridine-3-sulfonamide]",80,90,90,90,90,90,95,90,100,100,95,90,90,90,100,90,90,90,95,90,"herbicidal activity in percent, DIGSA [4]: 80%; herbicidal activity in percent, CHEAL [15]: 100%; herbicidal activity in percent, MATIN [18]: 90%; herbicidal activity in percent, SINAL [19]: 100%; herbicidal activity in percent, PHBPU [21]: 80%"
Cc1cc(C)nc(NC(=O)NS(=O)(=O)c2cnccc2C2=NOCCO2)n1 [Ia-3],80,80,90,90,80,80,85,100,95,90,85,95,80,100,90,85,80,85,80,90,"herbicidal activity in percent, CHEAL [15]: 90%; herbicidal activity in percent, MATIN [18]: 90%; herbicidal activity in percent, SINAL [19]: 90%; herbicidal activity in percent, PHBPU [21]: 90%"
CN(C)c1nc(NC(=O)NS(=O)(=O)c2cnccc2C2=NOCCO2)nc(OCC(F)(F)F)n1 [Ia-8],–,–,–,–,–,–,80,–,80,–,80,80,–,–,–,–,–,–,–,–,–
COc1cc(C)nc(NC(=O)NS(=O)(=O)c2cnccc2C2=NOCCO2)n1 [Ia-9],90,80,90,90,90,90,90,100,100,90,90,90,90,100,100,90,90,90,80,90,"herbicidal activity in percent, DIGSA [4]: 90%; herbicidal activity in percent, CHEAL [15]: 90%; herbicidal activity in percent, MATIN [18]: 90%; herbicidal activity in percent, PHBPU [21]: 90%"
COc1cc(OC)nc(NC(=O)NS(=O)(=O)c2cccnc2C2=NOCCO2)n1 [Ic-1],80,90,80,80,90,90,90,90,95,85,85,90,90,90,90,90,80,85,85,90,"herbicidal activity in percent, DIGSA [4]: 80%; herbicidal activity in percent, SINAL [19]: 90%"
